We go through five compounds from patent US12365643B2, “Phenoxy carboxylic acid compounds and medical uses thereof” (QINGDAO RISING BIOTECHNOLOGY CO., LTD, priority 2018, dated 2025).

For assay [1], the system named is CPT1α. Put plainly: CPT1α protein level by Western blotting in HepG2. The format is cell-based, human. The conditions noted are these: 1 μM, 24 hours, HepG2, Western blotting (FIG. 6A). An excerpt:
(§1) Carnitine palmitoyltransferase (CPT1α) is a rate-limiting enzyme of fatty acid oxidation. When the body or tissues are lacking in energy, CPT1α catalyzes the entry of fatty acids into mitochondria for […], and at the same time, CPT1α is also involved in the regulation of fatty acid-induced insulin resistance and inflammation. Protein kinase B/glycogen synthase kinase 3β (AKT/GSK3β) signaling pathway and insulin receptor substrate 1 (IRS-1) are key signaling pathways that regulate glucose metabolism in response to insulin signal. Therefore, by determining the effects of compounds on the CPT1α protein level and the AKT, GSK3β and IRS-1 protein phosphorylation levels, it is possible to evaluate the regulatory effects of the compounds on glycolipid metabolism.
(§2) After human liver cancer cells HepG2 were incubated with the compound of the present application or the control drug at 1 μM for 24 hours, the CPT1α protein level and the AKT, GSK3β and IRS-1 phosphorylated protein levels in the cells were determined by Western blotting; after gray-scale scanning by using Image J15.0.1, normalization was performed by using β-tubulin protein level as internal control, and the quantitative analysis results were shown in FIG. 6.

The subject of assay [2] is PGC1α. Put plainly: PGC1α mRNA expression by real-time quantitative PCR in HepG2. Format: cell-based, human. As to conditions: 1 μM, 6 hours, HepG2 (FIG. 5C). An excerpt:
(§3) Peroxisome proliferation factor activated receptor (PPAR) is an important nuclear receptor that regulates glycolipid metabolism, including three subtypes: α, β/δ and γ. Peroxisome proliferator-activated receptor γ coactivator 1α (PGC-1α) is its auxiliary transcriptional activator. Acyl-CoA oxidase 1 (ACOX1) is the first rate-limiting enzyme for fatty acid β oxidation. Fatty acid binding protein 1 (FABP1) is highly expressed in liver, and can bind fatty acid, heme and other molecules to reduce their toxicity and damage. Up-regulating the expression level of these genes helps to improve the body's metabolism, and their agonists are an important class of anti-metabolic drugs. After the compound of the present application (1 μM) and the control drug gemfibrozil (1 μM) were incubated with human liver cancer cells HepG2 for 6 hours, real-time fluorescent quantitative PCR method was used to determine the relative expression of mRNA of related genes in the cells.
(§4) The company which synthesized the primers was Suzhou Hongxun Biotechnology Co., Ltd. Tranzol reagent (Tranzol total RNA extraction reagent, TransGen Biotech) was used to extract total RNA from tissues. 5× All-In-One RT MasterMix reverse transcription kit (Abcam, USA) and real-time quantitative PCR Master Mix (Aidlab Biotechnologies Co., Ltd) were used. Bio-Rad CFX Connect™ Real-Time PCR Detection System for qPCR was used, and 2^−ΔΔCT method was used for data analysis. The expression level of mRNA in the normal control group was set to 1, and the relative expression level of mRNA in the administration group was calculated, so as to confirm whether the active compound affected the PPAR pathway, thereby further regulating lipid metabolism.

Assay [3] deals with ACOX1. Put plainly: ACOX1 mRNA expression by real-time quantitative PCR in HepG2. Format: cell-based, human. As to conditions: 1 μM, 6 hours, HepG2 (FIG. 5D).
Excerpt: as §3, §4

Assay [4] concerns PPARγ. Put plainly: PPARγ mRNA expression by real-time quantitative PCR in HepG2. Format: cell-based, human. The conditions noted are these: 1 μM, 6 hours, HepG2 (FIG. 5B).
Excerpt: as §3, §4

For assay [5], the system named is phosphorylated IRS-1. Put plainly: Phosphorylated IRS-1 level by Western blotting in HepG2. Format: cell-based, human. As to conditions: 1 μM, 24 hours, HepG2, Western blotting (FIG. 6C).
Excerpt: as §1, §2

For assay [6], the system named is RAW264.7 mouse macrophages. Put plainly: Determination of NO generation induced by LPS. The format is cell-based. As to conditions: 10 μM, 1 μg/mL LPS, 24 hours, RAW264.7 (FIG. 2). As for the experimental part:
The results are expressed as the multiple of the NO content in the cell culture supernatant of the administration group (10 μM) as compared with that in the cell culture supernatant of the control group (DMSO group), in which compared with the control group, *P<0.05, **P<0.01, ***P<0.001.
NO is a reactive nitrogen species (RNS) and an important gas signal molecule. Macrophages could convert arginine into NO which participated in the body's inflammatory response. Therefore, determination of inhibitory activity of a drug on NO generation was one of the classic methods to evaluate drug's anti-inflammatory ability. RAW264.7 cells at exponential growth phase were inoculated into a 96-well plate at 1×10^4 cells/200 μL. well of medium. After adherence, the medium was discarded, and the cells were subjected to drug treatments. Normal group (serum-free medium), LPS model group (serum-free medium containing 1 μg/mL LPS), LPS+drug group (serum-free medium containing 1 μg/mL LPS, 10 μM gemfibrozil or the compound of the present application) were established, and 3 repeated wells were set for each group. After 24 hours incubation in incubator, cell supernatant of each well was collected and assay was performed according to the instructions of NO determination kit (Nanjing Jiancheng). The absorbance value of each well at wavelength of 540 nm was read and NO content was calculated.

Assay [7] deals with antioxidant response element (ARE). Put plainly: ARE luciferase reporter gene activity in HepG2 cells. As to conditions: 50 μM, HepG2 stably transfected (FIG. 4). Format: cell-based, human. As for the experimental part: (§5) NF-κB was the most important inflammatory signal pathway. SW480 human colon cancer cells stably transfected with a luciferase reporter gene driven by NF-κB were used to determine the effects of the compound of the present application and the control drug gemfibrozil on NF-κB transcriptional activity, which comprised the following steps. • (1) Cells stably transfected with NF-κB Luc were cultivated to exponential growth, inoculated at a culture medium concentration of 1×10^5/[…] in a 24-well plate, and cultured for 24 hours, the medium was discarded, and the test compound or gemfibrozil formulated with serum-free medium at 50 μM were added to the 24-well plate and incubation was continued for 6 hours. After washing once with 200 μL of PBS, 100 μL of reporter gene cell lysis buffer was added, the cells were lysed on ice for 10 minutes, and the cell lysate was collected by pipetting. • (2) After centrifugation was performed at 8000 rpm and 4° C. for 10 min, the supernatant was pipetted for fluorescence assay. • (3) The measurement gap time of chemiluminescence analyzer was set to 2 s and the measurement time was set to 10 s. Automatic sample injection was adopted, 50 μL of luciferase assay reagent was added to each well. The reporter gene cell lysis buffer was used as a blank control. • (4) After centrifugation, the supernatant was taken, and the BCA method was used to determine the protein concentration so as to normalize the reporter gene results.
In this experimental example, the luciferase activity in HepG2 human liver cancer cells stably transfected with a luciferase reporter gene driven by antioxidant response element (ARE) was determined to evaluate the regulatory effects of the compound of the present application and gemfibrozil on the transcriptional activity of transcription factor Nrf2 and the cellular oxidative stress response signals, in which the operation process of the reporter gene assay was the same as that of Experimental Example 2.2.

Assay [8] has as its system phosphorylated GSK3β. Put plainly: Phosphorylated GSK3β level by Western blotting in HepG2. The format is cell-based, human. As to conditions: 1 μM, 24 hours, HepG2, Western blotting (FIG. 6B).
Excerpt: as §1, §2

Assay [9] deals with NF-κB. Put plainly: NF-κB luciferase reporter gene transcriptional activity in SW480 cells. The format is cell-based, human. The conditions noted are these: 50 μM, 6 hours, SW480 stably transfected (FIG. 3). The procedure:
as §5

Each structure is given as a SMILES string.

`Cc1cc(OCCCC(C)(C)C(=O)O)c(CO)cc1Br` [BJMU-502, 5-(4-bromo-2-(hydroxymethyl)-5-methylphenoxy)-2,2-dimethylpentanoic acid]: in assay [1], the CPT1α protein level entry was “significantly increased CPT1α protein level”. The “PGC1α mRNA expression” value in [2] is listed as “significantly induced PGC1α mRNA expression”. For the same compound, the “ACOX1 mRNA expression” value in assay [3] is recorded as “significantly induced ACOX1 mRNA expression”. Also, the “PPARγ mRNA expression” value in assay [4] is “significantly induced PPARγ mRNA expression”. For the same compound, the “phosphorylation level of IRS-1” value in assay [5] is reported as “significantly increased the phosphorylation level of IRS-1”. Also, the “NO generation induced by LPS” value in assay [6] was “could inhibit NO generation”. Moreover, the “ARE reporter gene activity” value in assay [7] is reported as “could significantly activate the ARE reporter gene activity”.
Consider `Cc1ccc(C)c(OCCCC(C)(C)C(=O)O)c1Br` [BJMU-404, 5-(2-bromo-3,6-dimethylphenoxy)-2,2-dimethylpentanoic acid], for which the CPT1α protein level result in assay [1] was “significantly increased CPT1α protein level”. For the same compound, the “ACOX1 mRNA expression” value in assay [3] is “significantly induced ACOX1 mRNA expression”. In assay [8], the “phosphorylation level of GSK3β” value was “significantly increased the phosphorylation level of GSK3β”. Further, in assay [9], the “activity of NF-κB reporter gene” value is “could significantly inhibit the activity of NF-κB reporter gene”. The “phosphorylation level of IRS-1” value in assay [5] is “significantly increased the phosphorylation level of IRS-1”. In addition, the “ARE reporter gene activity” value in assay [7] is “could significantly activate the ARE reporter gene activity”.
As to `Cc1cc(Br)c(C)c(Br)c1OCCCC(C)(C)C(=O)O` [BJMU-109, 5-(2,4-dibromo-3,6-dimethylphenoxy)-2,2-dimethylpentanoic acid], in assay [3], the “ACOX1 mRNA expression” value is recorded as “significantly induced ACOX1 mRNA expression”. Also, the “phosphorylation level of GSK3β” value in [8] was “significantly increased the phosphorylation level of GSK3β”. Besides, the “phosphorylation level of IRS-1” value in [5] is reported as “significantly increased the phosphorylation level of IRS-1”. Also, the “NO generation induced by LPS” value in assay [6] was “could inhibit NO generation”.
As to `Cc1cc(Br)c(C)c(C)c1OCCCC(C)(C)C(=O)O` [BJMU-409, 5-(4-bromo-2,3,6-trimethylphenoxy)-2,2-dimethylpentanoic acid], the CPT1α protein level entry in assay [1] is listed as “significantly increased CPT1α protein level”. For the same compound, the “PGC1α mRNA expression” value in [2] is recorded as “significantly induced PGC1α mRNA expression”. Also, the “ACOX1 mRNA expression” value in assay [3] was “significantly induced ACOX1 mRNA expression”. Further, the “phosphorylation level of GSK3β” value in [8] is “significantly increased the phosphorylation level of GSK3β”. In addition, the “phosphorylation level of IRS-1” value in assay [5] is reported as “significantly increased the phosphorylation level of IRS-1”. Moreover, the “ARE reporter gene activity” value in assay [7] is reported as “could significantly activate the ARE reporter gene activity”.
Consider `Cc1cc(F)c(C)c(OCCCC(C)(C)C(=O)O)c1` [BJMU-213, 5-(3-fluoro-2,5-dimethylphenoxy)-2,2-dimethylpentanoic acid], for which the CPT1α protein level entry in assay [1] is “significantly increased CPT1α protein level”. Moreover, in assay [8], the “phosphorylation level of GSK3β” value is “significantly increased the phosphorylation level of GSK3β”. In addition, the “phosphorylation level of IRS-1” value in assay [5] is on record as “significantly increased the phosphorylation level of IRS-1”.
